Here are results for 6 compounds from patent publication US8030498B2, “Benzoylpyrazole compounds and herbicides containing them” (Ishihara Sangyo Kaisha, Ltd., priority 2005, dated 2011).

Each structure is given as a SMILES string.

Holding throughout (type): in vivo
Common to all, as to details: visually observed 17th to 23rd day after application

The test system of assay [1] is barnyardgrass (Echinochloa crus-galli L.). As to the kind of experiment: Test Example 1: foliar treatment, growth inhibition rate, barnyardgrass. From the text:
(§1) Upland field soil was put into a 1/170,000 hectare pot, and seeds of various plants were sown. When the respective plants reached predetermined leaf stage ((1) barnyardgrass (Echinochloa crus-galli L.); 0.8 to 2.5 leaf stage, (2) crabgrass (Digitaria sanguinalis L.): 0.5 to 3.0 leaf stage, (3) greenfoxtail (Setaria viridis L.): 1.0 to 3.0 leaf stage, (4) redroot pigweed (Amaranthus retroflexus L.): cotyledon stage to 2.0 leaf stage, (5) prickly sida (Sida spinosa L.): cotyledon stage to 1.1 leaf stage, (6) velvetleaf (Abutilon theophrasti MEDIC.): cotyledon stage to 1.5 leaf stage, (7) rice (Oryza sativa L.): 1.0 to 2.5 leaf stage, (8) wheat (Triticum spp.): 1.7 to 3.4 leaf stage, (9) corn (Zea mays L.): 2.0 to 3.5 leaf stage, and (10) soybean (Glycine max Merr.): primary leaf stage to 0.3 leaf stage), wettable powders or emulsifiable concentrates of the compounds of the present invention prepared in accordance with a conventional preparation method, were weighed so that the active ingredients became the prescribed amounts, and diluted with water in an amount corresponding to 500 liter per 1 hectare. 0.1 vol % of an agricultural spreader was further added to the respective diluted liquids, followed by foliar treatment with a small sprayer.
(§2) On the 17th to 23rd day after application, the state of growth of the respective plants was visually observed, and the herbicidal effect was evaluated in accordance with a growth inhibition rate (%) of 0 (equivalent to the non-treated area) to 100% (complete kill).

Assay [2] has as its system crabgrass (Digitaria sanguinalis L.). As to the kind of experiment: Test Example 1: foliar treatment, growth inhibition rate, crabgrass.
Description: as §1, §2

In assay [3] the test system is greenfoxtail (Setaria viridis L.). Briefly: Test Example 1: foliar treatment, growth inhibition rate, greenfoxtail.
Description: as §1, §2

Assay [4] concerns redroot pigweed (Amaranthus retroflexus L.). Briefly: Test Example 1: foliar treatment, growth inhibition rate, redroot pigweed.
Description: as §1, §2

The subject of assay [5] is prickly sida (Sida spinosa L.). As to the kind of experiment: Test Example 1: foliar treatment, growth inhibition rate, prickly sida.
Description: as §1, §2

For assay [6], the system named is velvetleaf (Abutilon theophrasti MEDIC.). As to the kind of experiment: Test Example 1: foliar treatment, growth inhibition rate, velvetleaf.
Description: as §1, §2

The test system of the next assay is rice (Oryza sativa L.). Briefly: Test Example 1: foliar treatment, growth inhibition rate, rice.
Description: as §1, §2

A further assay concerns corn (Zea mays L.). As to the kind of experiment: Test Example 1: foliar treatment, growth inhibition rate, corn.
Description: as §1, §2

The subject of assay [7] is soybean (Glycine max Merr.). As to the kind of experiment: Test Example 1: foliar treatment, growth inhibition rate, soybean.
Description: as §1, §2

The next assay concerns wheat (Triticum spp.). As to the kind of experiment: Test Example 1: foliar treatment, growth inhibition rate, wheat.
Description: as §1, §2

`COCCOc1c(S(C)(=O)=O)ccc(C(=O)c2cnn(C)c2OC(=O)SC(C)(C)C)c1C` [compound 241]: the “Growth inhibition rate (%) Barnyardgrass” value in assay [1] (31 g/ha active ingredient) stood at 100%. For the same compound, the “Growth inhibition rate (%) Crabgrass” value in [2] (31 g/ha active ingredient) was 98%. For the same compound, in assay [3] (31 g/ha active ingredient), the “Growth inhibition rate (%) Greenfoxtail” value is given as 100%. The “Growth inhibition rate (%) redroot pigweed” value in assay [4] (31 g/ha active ingredient) is on record as 100%. Moreover, the “Growth inhibition rate (%) Prickly sida” value in assay [5] (31 g/ha active ingredient) is 90%. The “Growth inhibition rate (%) Velvetleaf” value in assay [6] (31 g/ha active ingredient) turned out to be 100%. For the same compound, the “Growth inhibition rate (%) Rice” value with rice (Oryza sativa L.) (31 g/ha active ingredient) came out at 90%. Also, in the assay on corn (Zea mays L.) (31 g/ha active ingredient), the “Growth inhibition rate (%) Corn” value is on record as 0%. In addition, the “Growth inhibition rate (%) Soybean” value in assay [7] (31 g/ha active ingredient) amounted to 100%.
In the case of `CCSC(=O)Oc1c(C(=O)c2ccc(S(C)(=O)=O)c(OCC3OCCO3)c2Cl)cnn1CC` [compound 227], in assay [1] (63 g/ha active ingredient), the “Growth inhibition rate (%) Barnyardgrass” value was determined as 100%. Moreover, the “Growth inhibition rate (%) Crabgrass” value in [2] (63 g/ha active ingredient) stood at 100%. Moreover, in assay [3] (63 g/ha active ingredient), the “Growth inhibition rate (%) Greenfoxtail” value is on record as 100%. For the same compound, in assay [4] (63 g/ha active ingredient), the “Growth inhibition rate (%) redroot pigweed” value turned out to be 100%. In assay [5] (63 g/ha active ingredient), the “Growth inhibition rate (%) Prickly sida” value came to 60%. Moreover, the “Growth inhibition rate (%) Velvetleaf” value in [6] (63 g/ha active ingredient) amounted to 100%. For the same compound, in the assay on rice (Oryza sativa L.) (63 g/ha active ingredient), the “Growth inhibition rate (%) Rice” value is 30%. Further, in the assay on wheat (Triticum spp.) (63 g/ha active ingredient), the “Growth inhibition rate (%) Wheat” value was 0%. Further, in the assay with corn (Zea mays L.) (63 g/ha active ingredient), the “Growth inhibition rate (%) Corn” value is given as 0%. In addition, in assay [7] (63 g/ha active ingredient), the “Growth inhibition rate (%) Soybean” value was found to be 95%.
As for `CCSC(=O)Oc1c(C(=O)c2ccc(S(C)(=O)=O)c(C=CC#N)c2C)cnn1C` [compound 229], in assay [1] (63 g/ha active ingredient), the “Growth inhibition rate (%) Barnyardgrass” value is listed as 100%. For the same compound, the “Growth inhibition rate (%) Crabgrass” value in assay [2] (63 g/ha active ingredient) was determined as 100%. Besides, the “Growth inhibition rate (%) Greenfoxtail” value in assay [3] (63 g/ha active ingredient) was 100%. The “Growth inhibition rate (%) redroot pigweed” value in assay [4] (63 g/ha active ingredient) is 100%. In addition, the “Growth inhibition rate (%) Prickly sida” value in [5] (63 g/ha active ingredient) was 98%. The “Growth inhibition rate (%) Velvetleaf” value in assay [6] (63 g/ha active ingredient) came out at 100%. Besides, the “Growth inhibition rate (%) Rice” value in the assay on rice (Oryza sativa L.) (63 g/ha active ingredient) came out at 95%. In addition, the “Growth inhibition rate (%) Wheat” value in the assay on wheat (Triticum spp.) (63 g/ha active ingredient) is recorded as 50%. In the assay on corn (Zea mays L.) (63 g/ha active ingredient), the “Growth inhibition rate (%) Corn” value was 60%. The “Growth inhibition rate (%) Soybean” value in [7] (63 g/ha active ingredient) was found to be 98%.
As for `CCC(C)SC(=O)Oc1c(C(=O)c2ccc(S(C)(=O)=O)c(OCCOC)c2C)cnn1C` (centres unmarked) [compound 239], the “Growth inhibition rate (%) Barnyardgrass” value in assay [1] (31 g/ha active ingredient) was found to be 98%. In addition, the “Growth inhibition rate (%) Crabgrass” value in [2] (31 g/ha active ingredient) turned out to be 100%. For the same compound, in assay [3] (31 g/ha active ingredient), the “Growth inhibition rate (%) Greenfoxtail” value is given as 100%. Also, the “Growth inhibition rate (%) Prickly sida” value in [5] (31 g/ha active ingredient) is 80%. Further, the “Growth inhibition rate (%) Velvetleaf” value in [6] (31 g/ha active ingredient) is listed as 100%. The “Growth inhibition rate (%) Rice” value in the assay with rice (Oryza sativa L.) (31 g/ha active ingredient) worked out at 85%. The “Growth inhibition rate (%) Corn” value in the assay on corn (Zea mays L.) (31 g/ha active ingredient) is 0%. Also, the “Growth inhibition rate (%) Soybean” value in [7] (31 g/ha active ingredient) was 100%.
Consider `C=C(C)CSC(=O)Oc1c(C(=O)c2ccc(S(C)(=O)=O)c(C(=O)OC)c2C)cnn1CC` [compound 101], for which, in assay [1] (31 g/ha active ingredient), the “Growth inhibition rate (%) Barnyardgrass” value was found to be 100%. Besides, the “Growth inhibition rate (%) Crabgrass” value in assay [2] (31 g/ha active ingredient) came out at 100%. Also, the “Growth inhibition rate (%) Greenfoxtail” value in assay [3] (31 g/ha active ingredient) stood at 100%. In assay [4] (31 g/ha active ingredient), the “Growth inhibition rate (%) redroot pigweed” value is given as 100%. Also, the “Growth inhibition rate (%) Prickly sida” value in assay [5] (31 g/ha active ingredient) was 70%. The “Growth inhibition rate (%) Velvetleaf” value in assay [6] (31 g/ha active ingredient) turned out to be 98%. Moreover, the “Growth inhibition rate (%) Rice” value with rice (Oryza sativa L.) (31 g/ha active ingredient) is 98%. For the same compound, the “Growth inhibition rate (%) Wheat” value with wheat (Triticum spp.) (31 g/ha active ingredient) was 10%. The “Growth inhibition rate (%) Corn” value in the assay with corn (Zea mays L.) (31 g/ha active ingredient) came to 30%. Besides, the “Growth inhibition rate (%) Soybean” value in assay [7] (31 g/ha active ingredient) is given as 90%.
Regarding `CCSC(=O)Oc1c(C(=O)c2ccc(S(C)(=O)=O)c(CC(N)=S)c2C)cnn1C` [compound 232], the “Growth inhibition rate (%) Barnyardgrass” value in assay [1] (63 g/ha active ingredient) is reported as 90%. Besides, the “Growth inhibition rate (%) Crabgrass” value in assay [2] (63 g/ha active ingredient) was 95%. In addition, the “Growth inhibition rate (%) Greenfoxtail” value in assay [3] (63 g/ha active ingredient) is recorded as 95%. For the same compound, in assay [5] (63 g/ha active ingredient), the “Growth inhibition rate (%) Prickly sida” value is reported as 70%. The “Growth inhibition rate (%) Velvetleaf” value in [6] (63 g/ha active ingredient) was 90%. The “Growth inhibition rate (%) Rice” value with rice (Oryza sativa L.) (63 g/ha active ingredient) is listed as 95%. For the same compound, the “Growth inhibition rate (%) Wheat” value in the assay with wheat (Triticum spp.) (63 g/ha active ingredient) stood at 0%. The “Growth inhibition rate (%) Corn” value in the assay on corn (Zea mays L.) (63 g/ha active ingredient) was 0%. Besides, the “Growth inhibition rate (%) Soybean” value in [7] (63 g/ha active ingredient) turned out to be 90%.
